According to patent US7528170B2, “Sulfonamide derivatives for the treatment of diseases” (Pfizer Inc., priority 2004, dated 2009):

Biological target: T1, human β2 adrenergic receptor (Homo sapiens, UniProt P07550)
T1 construct: expressed in transfected cells; host or cells: CHO (Chinese Hamster Ovary) cells, CHOhβ2
Test: β2 cAMP agonist potency assay in CHOhβ2 cells (cAMP-Flashplate)
Type: cell-based
Conditions: CHO cells recombinantly expressing the human β2 adrenergic receptor; compounds incubated with cells for 1 hour; data as % Isoprenaline activity, four parameter sigmoid fit
Procedure: According to another alternative, the agonist potency for the β2 receptor of the compounds of the formula (1) may also be determined by the measure of the concentration of compound according to the present invention required to produce half maximal effect (EC50) for the β2 receptor.
10 mM/100% DMSO (dimethylsulfoxide) stock of compound is diluted to required top dose in 4% DMSO. This top dose is used to construct a 10-point semi-log dilution curve, all in 4% DMSO. Isoprenaline (Sigma, 1-5627) was used as a standard in every experiment and for control wells on each plate. Data was expressed as % Isoprenaline response.
CHO (Chinese Hamster Ovary) cells recombinantly expressing the human β2 adrenergic receptor (from Kobilka et al., PNAS 84: 46-50, 1987 and Bouvier et al., Mol Pharmacol 33: 133-139 1988 CHOhβ2) were grown in Dulbeccos MEM/NUT MIX F12 (Gibco, 21331-020) supplemented with 10% foetal bovine serum (Sigma, F4135, Lot 90K8404 Exp 09/04), 2 mM glutamine (Sigma, G7513), 500 μg/ml geneticin (Sigma, G7034) and 10 μg/ml puromycin (Sigma, P8833). Cells were seeded to give about 90% confluency for testing.
25 μl/well each dose of compound was transferred into a cAMP-Flashplate® (NEN, SMP004B), with 1% DMSO as basal controls and 100 nM Isoprenaline as max controls. This was diluted 1:2 by the addition of 25 μl/well PBS. Cells were trypsinised (0.25% Sigma, T4049), washed with PBS (Gibco, 14040-174) and resuspended in stimulation buffer (NEN, SMP004B) to give 1×10^6 cells/ml CHOhB2. Compounds were incubated with 50 μl/well cells for 1 hour. Cells were then lysed by the addition of 100 μl/well detection buffer (NEN, SMP004B) containing 0.18 μCi/ml ^125I-cAMP (NEN, NEX-130) and plates were incubated at room temperature for a further 2 hours. The amount of ^125I-cAMP bound to the Flashplate® was quantified using a Topcount NXT (Packard), normal counting efficiency for 1 minute. Dose-response data was expressed as % Isoprenaline activity and fitted using a four parameter sigmoid fit. […] The following table illustrate the activity of the compounds of the invention: […]

T1 sequence (P07550 whole entry): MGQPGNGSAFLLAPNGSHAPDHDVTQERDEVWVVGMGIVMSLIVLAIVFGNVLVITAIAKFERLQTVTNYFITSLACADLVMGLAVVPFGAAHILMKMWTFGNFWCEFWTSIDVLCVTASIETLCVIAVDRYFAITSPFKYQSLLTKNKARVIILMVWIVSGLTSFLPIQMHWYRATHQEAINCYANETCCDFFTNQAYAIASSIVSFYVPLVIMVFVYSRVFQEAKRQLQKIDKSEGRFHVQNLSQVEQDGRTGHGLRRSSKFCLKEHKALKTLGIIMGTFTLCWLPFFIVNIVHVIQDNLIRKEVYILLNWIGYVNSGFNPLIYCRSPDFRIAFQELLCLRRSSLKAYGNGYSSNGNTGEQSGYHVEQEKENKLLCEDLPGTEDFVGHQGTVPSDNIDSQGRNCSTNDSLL

| SMILES | EC50 |
| --- | --- |
| CC(C)(Cc1cccc(CC(=O)NCc2ccc(-c3ccc(O)cc3)cc2)c1)NC[C@H](O)c1ccc(O)c(NS(C)(=O)=O)c1 [Example 2, N-[(4′-Hydroxybiphenyl-4-yl)methyl]-2-(3-{2-[((2R)-2-hydroxy-2-{4-hydroxy-3-[(methylsulfonyl)amino]phenyl}ethyl)amino]-2-methylpropyl}phenyl)acetamide] | 240 pM |
| CC(C)(Cc1cccc(CC(=O)NCc2cccc(-c3ccc(O)cc3)c2)c1)NC[C@H](O)c1ccc(O)c(NS(C)(=O)=O)c1 [Example 7, N-[(4′-Hydroxybiphenyl-3-yl)methyl]-2-(3-{2-[((2R)-2-hydroxy-2-{4-hydroxy-3-[(methylsulfonyl)amino]phenyl}ethyl)amino]-2-methylpropyl}phenyl)acetamide] | 260 pM |
| CC(C)(Cc1cccc(CC(=O)NCC(C)(C)c2ccc(O)cc2)c1)NC[C@H](O)c1ccc(O)c(NS(C)(=O)=O)c1 [Example 9, 2-(3-{2-[((2R)-2-Hydroxy-2-(4-hydroxy-3-[(methylsulfonyl)amino]phenyl)ethyl)amino]-2-methylpropyl}phenyl)-N-[2-(4-hydroxyphenyl)-2-methylpropyl]acetamide] | 450 pM |
| CC(C)(Cc1cccc(CC(=O)N2CCc3cc(O)ccc3C2)c1)NC[C@H](O)c1ccc(O)c(NS(C)(=O)=O)c1 [Example 13, N-(2-Hydroxy-5-{(1R)-1-hydroxy-2-[(2-{3-[2-(6-hydroxy-3,4-dihydroisoquinolin-2(1H)-yl)-2-oxoethyl]phenyl}-1,1-dimethylethyl)amino]ethyl}phenyl)methanesulfonamide] | 80 pM |

More lines, now with the values ahead:

| EC50 | SMILES |
| --- | --- |
| 30 pM | COc1cc(CNC(=O)Cc2cccc(CC(C)(C)NC[C@H](O)c3ccc(O)c(NS(C)(=O)=O)c3)c2)ccc1O [Example 1, 2-(3-{2-[((2R)-2-Hydroxy-2-{4-hydroxy-3-[(methylsulfonyl)amino]phenyl}ethyl)amino]-2-methylpropyl}phenyl)-N-(4-hydroxy-3-methoxybenzyl)acetamide] |
| 160 pM | CC(C)(Cc1cccc(CC(=O)NCc2ccc3cc(O)ccc3c2)c1)NC[C@H](O)c1ccc(O)c(NS(C)(=O)=O)c1 [Example 6] |
| 90 pM | CC(C)(Cc1cccc(CC(=O)NCCc2ccc(O)cc2)c1)NC[C@H](O)c1ccc(O)c(NS(C)(=O)=O)c1 [Example 15, 2-(3-{2-[((2R)-2-Hydroxy-2-{4-hydroxy-3-[(methylsulfonyl)amino]phenyl}ethyl)amino]-2-methylpropyl}phenyl)-N-[2-(4-hydroxyphenyl)ethyl]acetamide] |
| 290 pM | CC(C)(Cc1cccc(CC(=O)NCc2cc(O)cc(C(F)(F)F)c2)c1)NC[C@H](O)c1ccc(O)c(NS(C)(=O)=O)c1 [Example 20, 2-(3-{2-[((2R)-2-Hydroxy-2-{4-hydroxy-3-[(methylsulfonyl)amino]phenyl}ethyl)amino]-2-methylpropyl}phenyl)-N-[3-hydroxy-5-(trifluoromethyl)benzyl]acetamide] |
